Earlier results in patent US20120270995A1, “AQUEOUS FORMULATIONS INCLUDING DIOXOLANES AS COUPLING AGENTS” (RHODIA POLIAMIDA E ESPECIALIDADES LTDA, priority 2009, published 2012).
Where two headings read alike, the source gives them in different places.

Key:
[1] = in vivo
[2] = in vivo; remark: listed apart in the source
[3] = in vivo; remark: listed apart in the source
[4] = not given; remark: listed apart in the source
[5] = CMR = carcinogenic/mutagenic/reproductively toxic

| Compound | Aquatic toxicity [1] | Vapour point (20° C.) [mmHg] | Skin irritation [2] | Eye irritation [3] | Acute oral toxicity [4] | Vapour point (25° C.) [mmHg] | CMR [5] | Vapour point (37.8° C.) [mmHg] |
| --- | --- | --- | --- | --- | --- | --- | --- | --- |
| CCCCOCCOC(C)=O [Butylglycol acetate] | 103.17 mg/L | 0.4 | weak | weak | 2360 mg/kg | – | – | – |
| CCCCOCCO [Butylglycol] | – | 0.8 | – | – | – | – | – | – |
| CCOCCOCCO [Ethyldiglycol] | 13 400 mg/l | – | severe | severe | 5500 mg/kg | 0.1 | – | – |
| CCOCCOC(C)=O [Ethylglycol acetate] | 244.66 mg/L | 2.0 | severe | severe | 2900 mg/kg | – | cat. 2 | – |
| CCOCCO [Ethylglycol] | 5000 mg/L | – | moderate | weak | 3000 mg/kg | 5.3 | cat. 2 | – |
| CC1(C)OCC(CO)O1 (stereo not drawn) [Solketal, 2,2-Dimethyl-1,3-dioxolane-4-methanol] | >1000 mg/L | – | moderate | moderate | 7000 mg/kg | – | – | 52.0 |
| Methylglycol | 18 000 mg/l | 6.2 | weak | severe | 18 000 mg/kg | – | – | – |
